Laboratory results published in US20030139372A1, “Modulation of bone formation” (priority 2000, published 2003).
Entries after “also recorded” stand apart in the source; their conditions may differ.

What was measured:
[1] = system: bone forming cells; experiment: Bone anabolic activity from CFU-f and NASP cell assays combined with neonatal rat calvarial organ cultures; format: cell-based; conditions: for bone anabolic activity: useful activity taken as equivalent to that of PGE2
Description: The main reason for the lack of understanding of the cellular basis for the actions of bone anabolic drugs is that there exists, at present, no single in vitro assay which responds to these drugs in an appropriate manner. However, we have now developed a number of assays which, when used in combination with neonatal rat calvarial organ cultures, are able to predict bone anabolic agents.
In the accompanying Figures, which are purely illustrative and not limiting on the present invention, the effect of certain compounds is shown on alkaline phosphatase activity, calcium uptake and collagen synthesis, respectively, with the final bar showing the cumulative and determinative effect of the compound on bone anabolism:
As noted above, there is no single assay that can reliably report on bone anabolic activity. Individual assays can identify certain putative bone anabolic agents but as there are many bone anabolic agents which act by a number of mechanisms, many remain unidentified. By using the CFU-f and the NASP cell assays in combination with neonatal rat calvarial organ cultures, bone anabolic agents can be reliably identified as the false negatives are reduced to a minimum.

[2] = system: whole bone marrow cells (BMC); experiment: Fibroblastic colony forming unit (CFU-f) cultures of whole bone marrow cells; format: cell-based, rat; conditions: for colony numbers: CFU-f colonies
Procedure: Whole bone marrow cells (BMC's) were obtained from the tibias and femurs of 125 g male Wistar rats. The bones were removed under aseptic conditions and all soft adherent tissue removed. An end of each bone was removed, a hole made in the opposing end with an 18 gauge syringe needle, and the cells isolated centrifugally [Dobson K. R., et al., Calcif tissue Int., 65:411-413 (1999)]. The cells were dispersed in 10 ml DMEM (containing 12% FCS, 1×10^−8 M dexamethasone and […] ascorbic acid) by repeated pipetting, and a single-cell suspension achieved by forcefully expelling the cells through a 20 gauge syringe needle. The cells were then used in the protocols described below. To analyse the numbers of fibroblastic-colony forming units (CFU-f) in either whole BMC or high density non-adherent stromal precursor (NASP) cell cultures, 10^6 nucleated BMC, or the non-adherent cells from the high density NASP cellcultures, were plated out on 55 cm^2 petri dishes in DMEM containing; 12% FCS, 1×10^−8 M dexamethasone and 50 μg/ml ascorbic acid. In the case of the CFU-f analysis of whole BMC, the test agents were added once at the beginning of the culture period. In the case of NASP cell cultures, the test agents were added at the beginning of the NASP cell cultures themselves and the CFU-f assay only used to assess the number of CFU-f generated during the NASP cell culture. The medium was changed after 5 days and, thereafter, twice weekly. The cultures were maintained for 18 days, after which the cells were washed with PBS and fixed, by the addition of cold ethanol. After fixation, the cultures were stained for alkaline phosphatase (APase) positive, calcium positive, collagen positive and total colonies as described by Scutt & Bertram (J. Bone and Mineral Res. 10:474-489, 1995). The cultures were then photographed using a digital camera and the APase positive, calcium positive, collagen positive and total colonies quantitated using Bioimage “Intelligent Quantifier” image analysis software [Dobson K., et al., A cost effective method for the automatic quantitative analysis of fibroblastic-colony forming units with osteoblastic potential. Calcif. Tissue Int. 65:166-172 (1999)].

[3] = system: non-adherent stromal precursor (NASP) cells; experiment: High-density non-adherent stromal precursor (NASP) cell cultures; format: cell-based, rat; conditions: 4 day NASP culture then CFU-f readout; FIG. 1
Procedure: Whole bone marrow cells (BMC's) were obtained from the tibias and femurs of 125 g male Wistar rats. The bones were removed under aseptic conditions and all soft adherent tissue removed. An end of each bone was removed, a hole made in the opposing end with an 18 gauge syringe needle, and the cells isolated centrifugally [Dobson K. R., et al., Calcif tissue Int., 65:411-413 (1999)]. The cells were dispersed in 10 ml DMEM (containing 12% FCS, 1×10^−8 M dexamethasone and […] ascorbic acid) by repeated pipetting, and a single-cell suspension achieved by forcefully expelling the cells through a 20 gauge syringe needle. The cells were then used in the protocols described below. […]
After fixation, the cultures were stained for alkaline phosphatase (APase) positive, calcium positive, collagen positive and total colonies as described by Scutt & Bertram (J. Bone and Mineral Res. 10:474-489, 1995). The cultures were then photographed using a digital camera and the APase positive, calcium positive, collagen positive and total colonies quantitated using Bioimage “Intelligent Quantifier” image analysis software [Dobson K., et al., A cost effective method for the automatic quantitative analysis of fibroblastic-colony forming units with osteoblastic potential. […]

[4] = system: neonatal rat calvariae; experiment: Collagen synthesis in organ culture of neonatal rat calvariae; format: cell-based; conditions: [3H]proline incorporation into collagenase-digestible protein; FIG. 1
Procedure: One day old rat pups were killed and the calvariae (skull cases) dissected out. The calvariae were then cut along the sagittal suture to give two hemicalvariae per foetus. Each bone was cultured in 2 ml DMEM containing 1 mg/ml BSA, 50 μg/ml ascorbic acid, 60 μg/ml penicillin, and 50 μg/ml streptomycin and 1×10^−8M dexamethasone in 35 mm tissue culture wells. After 24 h, the medium was replaced with fresh medium, any test agent added, and the tissue cultured for a further 48 h.
In this assay, each bone was pulsed with 10 μCi of [^3H]proline for 24 h at the end of the culture period. The bones were washed successively in trichloroacetic acid (TCA), acetone, and ether, and then dried. The incorporation of [^3H]proline into collagenase-digestible protein (CDP) was determined using purified bacterial collagenase by the method of Peterkofsky B. and Diegelmann R. (Biochemistry, 6: 988-994, 1971) and expressed as dpm.

SMILES | bone anabolic activity [1] | colony numbers [2] | further results
CCCCC/C=C\C/C=C\CCCCCCCC(=O)O [Linoleic acid, linoleic acid] | showed bone anabolic activity |  | 
CCCCCCCCCCCCCCCC(=O)OC [Methyl palmitate, methyl palmitate] |  | produced stimulation | 
CCCCC[C@H](O)/C=C/[C@H]1C=CC(=O)[C@@H]1CCCCCCC(=O)O [PGA1] |  | significant dose dependent increase | response in NASP cell assay [3]: positive response; response in calvarial collagen synthesis assay [4]: positive response; bone anabolic activity compared with PGE2 ([1]; magnitude relative to PGE2): comparable with that produced by PGE2; also recorded: at least as good as that of PGE2; response in CFU-f assay ([2]; whole BMC, 18 day culture, FIG. 1): positive response
CCCCC[C@H](O)/C=C/[C@H]1C=CC(=O)[C@@H]1C/C=C\CCCC(=O)O [PGA2] | useful activity |  | 
CC#CCC(C)[C@H](O)/C=C/[C@@H]1[C@H]2C/C(=C/CCCC(=O)O)C[C@H]2C[C@H]1O (some centres unmarked) [iloprost] |  | stimulation comparable with that of PGA1 | 
CCCCCCCC/C=C\CCCCCCCC(=O)O [oleic acid] | useful activity |  | 
c1cc2c(cc1[C@H]1OC[C@H]3[C@@H]1CO[C@@H]3c1ccc3c(c1)OCO3)OCO2 [sesamin] | useful activity |  | 
